The test addresses T1, mAChR M1 (UniProt P11229).
T1 sequence (P11229 1-460): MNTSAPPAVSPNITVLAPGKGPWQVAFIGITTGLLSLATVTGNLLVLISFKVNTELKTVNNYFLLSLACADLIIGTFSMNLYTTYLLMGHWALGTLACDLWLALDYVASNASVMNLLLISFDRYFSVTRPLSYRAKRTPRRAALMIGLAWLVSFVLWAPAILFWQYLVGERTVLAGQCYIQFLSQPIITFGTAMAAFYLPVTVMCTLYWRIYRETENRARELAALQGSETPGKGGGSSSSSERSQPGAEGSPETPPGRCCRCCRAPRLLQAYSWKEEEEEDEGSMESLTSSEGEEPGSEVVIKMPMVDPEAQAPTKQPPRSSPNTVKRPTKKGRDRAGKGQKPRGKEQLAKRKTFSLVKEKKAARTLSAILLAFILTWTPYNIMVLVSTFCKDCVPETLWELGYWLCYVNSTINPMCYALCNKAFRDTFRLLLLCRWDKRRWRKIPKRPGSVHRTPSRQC
The test is described as follows: mAChR M1 cell-based functional assay (calcium mobilization, antagonist mode). Conditions: for IC50: concentration of antagonist decreasing calcium flux by 50%, EC80 acetylcholine response, CHO-K1 cells expressing mAChR M1, read-out: Potency (IC50). An excerpt: Chinese hamster ovary (CHO-K1) cells stably expressing rat (r)M1 were purchased from the American Type Culture Collection and cultured according to their indicated protocol. CHO cells stably expressing human (h)M2, hM3, and hM5 were described previously (Levey, et al., 1991); hM1 and hM4 cDNAs were purchased from Missouri S&T cDNA Resource; rM4 cDNA was provided by T. I. Bonner (National Institutes of Health, Bethesda, Md.). rM2 and rM3 were cloned from a rat brain cDNA library and sequence verified. hM1, rM2, rM3, hM4, and rM4 cDNAs were used to stably transfect CHO-K1 cells purchased from the American Type Culture Collection using Lipofectamine-2000. To make stable rM2, hM2, rM3, hM4, and rM4 cell lines for use in calcium mobilization assays, these cells also were stably transfected with a chimeric G-protein (Gqi5) (provided by B. R. Conklin, University of California, San Francisco) using Lipofectamine 2000. rM1, hM1, rM3, hM3, rM5, and hM5 cells were grown in Ham's F-12 medium containing 10% heat-inactivated fetal bovine serum (FBS), 20 mM HEPES, and 50 μg/mL G418 sulfate. rM2-Gqi5, hM2-Gqi5, and hM4-Gqi5 cells were grown in the same medium also containing 500 μg/mL Hygromycin B. Stable rM4-Gqi5 cells were grown in DMEM containing 10% heat-inactivated FBS, 20 mM HEPES, 400 μg/mL G418 sulfate, and […].
For high throughput measurement of antagonist inhibited increases in intracellular calcium, CHO-K1 cells stably expressing muscarinic receptors were plated in growth medium lacking G418 and hygromycin at 15,000 cells/20 μL/well in Greiner 384-well black-walled, tissue culture (TC)-treated, clear-bottom plates (VWR). Cells were incubated overnight at 37° C. and 5% CO2. The next day, cells were washed using an ELX 405 (BioTek) with four washes (80 μL) of assay buffer then aspirated to 20 μL. Next, 20 μL of 16 μM Fluo-4/acetoxymethyl ester (Invitrogen, Carlsbad, Calif.) prepared as a 2.3 mM stock in DMSO and mixed in a 1:1 ratio with 10% (w/v) Pluronic F-127 and diluted in assay buffer was added to the wells and the cell plates were incubated for 50 min at 37° C. and 5% CO2. Dye was removed by washing with the ELX 405 (four 80 μL washes of assay buffer) then aspirated to 20 μL. Compound master plates were formatted in an 11 point CRC format (1:3 dilutions) in 100% DMSO with a starting concentration of 10 mM using the BRAVO liquid handler (Agilent). Test compound CRCs were then transferred to daughter plates (240 nL) using the Echo acoustic plate reformatter (Labcyte, Sunnyvale, Calif.) and then diluted into assay buffer (40 μL) to a 2× stock using a Thermo Fisher Combi (Thermo Fisher Scientific, Waltham, Mass.).
Calcium flux was measured using the Functional Drug Screening System (FDSS) 6000 (Hamamatsu Corporation, Tokyo, Japan) as an increase in the fluorescent static ratio. Compounds were applied to cells (20 μL, 2×) using the automated system of the FDSS 6000 at 4 s into the 300 s protocol and the data were collected at 1 Hz. At 144 s into the 300 s protocol, 10 μL of an EC20 concentration of the muscarinic receptor agonist acetylcholine was added (5×), followed by the addition of 12 μL an EC80 concentration of acetylcholine at the 230 s time point (5×). Agonist activity was analyzed as a concentration-dependent increase in calcium mobilization upon compound addition. Positive allosteric modulator activity was analyzed as a concentration-dependent increase in the EC20 acetylcholine response. Antagonist activity was analyzed as a concentration-dependent decrease in the EC80 acetylcholine response. Concentration-response curves were generated using a four-parameter logistical equation in XLfit curve fitting software (IDBS, Bridgewater, N.J.) for Excel (Microsoft, Redmond, Wash.) or Prism (GraphPad Software, Inc., San Diego, Calif.).
The calcium mobilization assay was used to determine “potency”.
(In general: Calcium flux is commonly read through the fluorescence of an indicator in the cells.)

Setting [1] is: dash = baseline or about zero remaining activity (table footnote).
The mark [2] stands for this setting: activity remaining at top dose of 30 μM test compound, as percentage of the response to an approx. EC80 concentration of ACh.

The structures appear in SMILES notation.

Consider `O=C(C1CN(S(=O)(=O)c2cccc(Cl)c2Cl)C1)N1CC2CN(c3ccncc3)CC2C1` (centres unmarked) [B58], for which the “Remaining Activity (%)” value under setting [1] is recorded as “— (Unless otherwise indicated with a numerical value, the percent remaining activity is baseline or about zero, i.e. as indicated by “—”)”.

By IC50 is commonly meant the concentration at which inhibition is half-maximal. For `Cn1cc(S(=O)(=O)N2CC(C(=O)N3CC4CN(c5ccncc5)CC4C3)C2)cn1` (centres unmarked) [B83], the concentration for half-maximal inhibition (IC50) was over 10 µM. Further, the “Remaining Activity (%)” value under setting [2] was “≧80%”.

As to `Cc1ccnc(S(=O)(=O)N2CC(C(=O)N3CCN(c4ccncc4)CC3)C2)c1` [B40], the IC50 was over 10 µM. In addition, the “Remaining Activity (%)” value under setting [2] was 41%. In the case of `CCC(C)S(=O)(=O)N1CC(C(=O)N2CCN(c3ccncc3)CC2)C1` (centres unmarked) [B46], the IC50 was over 10 µM. The “Remaining Activity (%)” value under setting [2] is listed as 52%. For the compound `CCC(C)S(=O)(=O)N1CC(C(=O)N2CC3CN(c4ccncc4)CC3C2)C1` (centres unmarked) [B85], the IC50 was over 10 µM. Also, the “Remaining Activity (%)” value under setting [2] is given as “≧80%”. Turning to `O=C(C1CN(S(=O)(=O)c2ccc3c(c2)CCO3)C1)N1CCN(c2ccncc2)CC1` [B5], the IC50 amounted to 0.095 µM. Under setting [1], the “Remaining Activity (%)” value was “— (Unless otherwise indicated with a numerical value, the percent remaining activity is baseline or about zero, i.e. as indicated by “—”)”. `O=C(C1CN(S(=O)(=O)c2ccc3ncccc3c2)C1)N1CCN(c2ccncc2)CC1` [B15]: the “Remaining Activity (%)” value under setting [1] is listed as “— (Unless otherwise indicated with a numerical value, the percent remaining activity is baseline or about zero, i.e. as indicated by “—”)”. For the compound `O=C(C1CN(S(=O)(=O)c2cccc3cnccc23)C1)N1CCC(c2cccnc2)C1` (centres unmarked) [B48], the IC50 was over 10 µM. Further, under setting [2], the “Remaining Activity (%)” value was 30%. Turning to `COc1ccc(S(=O)(=O)N2CC(C(=O)N3CCN(c4ccncc4)CC3)C2)cn1` [B38], the IC50 was over 10 µM. Further, the “Remaining Activity (%)” value under setting [2] turned out to be 23%.

On to `Cn1ccc2cc(S(=O)(=O)N3CC(C(=O)N4CCN(c5ccncc5)CC4)C3)ccc21` [B50], for which the IC50 was over 10 µM. The “Remaining Activity (%)” value under setting [2] is 59%. As to `O=C(C1CN(S(=O)(=O)c2ccc(C(F)(F)F)nc2)C1)N1CCN(c2ccncc2)CC1` [B41], the IC50 was over 10 µM. Further, under setting [2], the “Remaining Activity (%)” value was found to be 37%. For the compound `O=C(C1CN(S(=O)(=O)c2cccc(Cl)c2)C1)N1CCN(c2ccncc2)CC1` [B36], the “Remaining Activity (%)” value under setting [2] was 27%. As to `O=C(C1CN(S(=O)(=O)c2ccc3[nH]c(=O)oc3c2)C1)N1CCN(c2ccncc2)CC1` [B75], the IC50 is over 10 µM. For the same compound, the “Remaining Activity (%)” value under setting [2] is reported as “≧80%”. For `O=C(C1CN(S(=O)(=O)c2cccc3cnccc23)C1)N1CCN(c2ccncc2)CC1` [B1], the “Remaining Activity (%)” value under setting [1] is listed as “— (Unless otherwise indicated with a numerical value, the percent remaining activity is baseline or about zero, i.e. as indicated by “—”)”.

As to `O=C(C1CN(S(=O)(=O)c2ccc3occc3c2)C1)N1CCN(c2ccncc2)CC1` [B24], the IC50 was found to be 1.5 µM. Under setting [1], the “Remaining Activity (%)” value is “— (Unless otherwise indicated with a numerical value, the percent remaining activity is baseline or about zero, i.e. as indicated by “—”)”. As for `O=C(C1CN(S(=O)(=O)c2cccc3nonc23)C1)N1CCN(c2ccc(Br)cn2)CC1` [B11], the IC50 was found to be 0.35 µM. In addition, the “Remaining Activity (%)” value under setting [1] is on record as “— (Unless otherwise indicated with a numerical value, the percent remaining activity is baseline or about zero, i.e. as indicated by “—”)”. For `Cn1cnc(S(=O)(=O)N2CC(C(=O)N3CCN(c4ccncc4)CC3)C2)c1` [B66], the IC50 was over 10 µM. For the same compound, the “Remaining Activity (%)” value under setting [2] is reported as “≧80%”. As to `Cn1cc(S(=O)(=O)N2CC(C(=O)N3CCN(c4ccncc4)CC3)C2)cn1` [B18], the IC50 amounted to 0.74 µM. Also, the “Remaining Activity (%)” value under setting [1] is recorded as “— (Unless otherwise indicated with a numerical value, the percent remaining activity is baseline or about zero, i.e. as indicated by “—”)”. `O=C(C1CN(S(=O)(=O)c2ccc(N3CCOCC3)nc2)C1)N1CCN(c2ccncc2)CC1` [B74]: the IC50 was over 10 µM. The “Remaining Activity (%)” value under setting [2] is “≧80%”. On to `O=C(C1CN(S(=O)(=O)c2ccc(OC(F)F)cc2)C1)N1CCN(c2ccncc2)CC1` [B63], for which the IC50 is over 10 µM. Also, the “Remaining Activity (%)” value under setting [2] is reported as “≧80%”. For the compound `O=C(C1CN(S(=O)(=O)c2ccccc2OC(F)(F)F)C1)N1CCN(c2ccncc2)CC1` [B29], the IC50 stood at 2.8 µM. Moreover, the “Remaining Activity (%)” value under setting [1] is on record as “— (Unless otherwise indicated with a numerical value, the percent remaining activity is baseline or about zero, i.e. as indicated by “—”)”.

As for `O=C(C1CN(S(=O)(=O)c2ccc3c(c2)OCO3)C1)N1CCN(c2ccncc2)CC1` [B9], under setting [1], the “Remaining Activity (%)” value was “— (Unless otherwise indicated with a numerical value, the percent remaining activity is baseline or about zero, i.e. as indicated by “—”)”. Turning to `O=C(C1CN(S(=O)(=O)c2cccc3cnccc23)C1)N1CCN(c2ccnc(Cl)c2)CC1` [B2], the IC50 came out at 0.048 µM. The “Remaining Activity (%)” value under setting [1] is listed as “— (Unless otherwise indicated with a numerical value, the percent remaining activity is baseline or about zero, i.e. as indicated by “—”)”. In the case of `O=C(C1CN(S(=O)(=O)c2cc(Cl)ccc2F)C1)N1CCN(c2ccncc2)CC1` [B35], the IC50 is over 10 µM. For the same compound, the “Remaining Activity (%)” value under setting [2] worked out at 32%. For `CN1CCOc2cc(S(=O)(=O)N3CC(C(=O)N4CCN(c5ccncc5)CC4)C3)cnc21` [B73], in that order: over 10 µM and “≧80%”.

As for `Cn1nccc1-c1cccc(S(=O)(=O)N2CC(C(=O)N3CCN(c4ccncc4)CC3)C2)c1` [B65], the concentration for half-maximal inhibition (IC50) is over 10 µM. For the same compound, under setting [2], the “Remaining Activity (%)” value was “≧80%”. In the case of `O=C(C1CN(S(=O)(=O)c2ccc3c(c2)OCO3)C1)N1CC2CN(c3ccncc3)CC2C1` (centres unmarked) [B57], the half-maximal inhibitory concentration (IC50) was determined as 0.95 µM. For the same compound, under setting [1], the “Remaining Activity (%)” value was “— (Unless otherwise indicated with a numerical value, the percent remaining activity is baseline or about zero, i.e. as indicated by “—”)”.

`CC(C)S(=O)(=O)N1CC(C(=O)N2CCN(c3ccncc3)CC2)C1` [B44]: the IC50 was over 10 µM. Moreover, the “Remaining Activity (%)” value under setting [2] came to 59%.

Regarding `O=C(C1CN(S(=O)(=O)C2CCCCC2)C1)N1CC2CN(c3ccncc3)CC2C1` (centres unmarked) [B86], the IC50 is over 10 µM. In addition, the “Remaining Activity (%)” value under setting [2] is “≧80%”. `Cc1cc2c(S(=O)(=O)N3CC(C(=O)N4CC5CN(c6ccncc6)CC5C4)C3)cccc2cn1` (centres unmarked) [B60]: the “Remaining Activity (%)” value under setting [1] is “— (Unless otherwise indicated with a numerical value, the percent remaining activity is baseline or about zero, i.e. as indicated by “—”)”.

`O=C(C1CN(S(=O)(=O)c2cccc3nonc23)C1)N1CCN(c2nccs2)CC1` [B33]: the IC50 was over 10 µM. Besides, the “Remaining Activity (%)” value under setting [2] is recorded as 48%.
